NC(=O)N/N=C/c1ccc([N+](=O)[O-])o1
solubility (mole fraction)
Conditions	in DMF	in acetone	in acetonitrile	in ethanol	in ethyl acetate	in formamide	in isopropanol	in methanol	in n-propanol	in water
278.15 K	0.0194	0.000291	7.32e-05	5.89e-05	7.69e-05	0.00131	2.66e-05	0.000137	3.6e-05	4.23e-06
283.15 K	0.0202	0.000339	9.44e-05	7.3e-05	8.31e-05	0.00154	3.27e-05	0.000168	4.98e-05	5.75e-06
288.15 K	0.0207	0.00038	0.000116	8.98e-05	9.59e-05	0.00178	4.03e-05	0.000198	5.29e-05	8.03e-06
293.15 K	0.0223	0.000435	0.000146	0.000112	0.000116	0.00205	5.09e-05	0.000238	6.62e-05	1.07e-05
298.15 K	0.023	0.000501	0.000168	0.000136	0.00013	0.0024	6.47e-05	0.000284	8.61e-05	1.27e-05
303.15 K	0.0255	0.00056	0.000204	0.000165	0.000151	0.00273	8.79e-05	0.000338	0.000108	1.53e-05
308.15 K	0.0265	0.000641	0.000246	0.000203	0.000172	0.00313	0.000116	0.000404	0.000139	2.05e-05
313.15 K	0.0279	0.000749	0.000293	0.000247	0.000202	0.00359	0.000151	0.000478	0.000164	2.68e-05

Source: BigSolDB 2.1
